Several values for one entry are separate records, joined by “and”; a condition that tells them apart may be missing. Identical values can stand only once. Positions of bridges follow the written chain, without caps; N, C: chain ends. Non-standard residues stand in square brackets, D forms with d. Residues, ends and D or L forms follow the SMILES beside them. *: point of attachment. Ileψ(thiazoline)Cys = CC[C@H](C)[C@H](N)C1=N[C@H](C(=O)*)CS1; dOrn = NCCC[C@@H](N)C(=O)O
Key:
[1] = system: Eimeria acervulina Strain 59 And E. tenella Strain 155; assay: anticoccidial feed test in infected chickens, ionophore-sensitive strains; format: in vivo; details: A82810 0 ppm
[2] = system: Eimeria maxima Strain FS-177; assay: anticoccidial feed test in infected chickens, ionophore-sensitive strain; format: in vivo; details: A82810 0 ppm
[3] = system: Eimeria acervulina Strain FS-273 and E. tenella Strain FS-456; assay: anticoccidial feed test in infected chickens, ionophore-resistant strains; format: in vivo; details: Table XX, A82810 0 ppm
[4] = system: Eimeria acervulina Strain FS-316 And E. tenella Strain FS-456; assay: as above; format: in vivo; details: A82810 0 ppm
[5] = system: E. acervulina Strain FS-316; assay: anticoccidial feed test in infected chickens, ionophore-resistant strain; format: in vivo; details: Table X, A82810 0 ppm
E. maxima Strain LIT-626 = assay: as above; format: in vivo; details: Table XIII; A82810 0 ppm; Benzeneamine ppm r4-r7: 8,10,12,14
[6] = system: Eimeria acervulina H & C and Eimeria tenella Wis; assay: anticoccidial feed test in infected chickens, ionophore-sensitive strains; format: in vivo; details: Table XIX, A82810 0 ppm
[7] = system: Eimeria maxima Strain FS-410; assay: anticoccidial feed test in infected chickens, ionophore-resistant strain; format: in vivo; details: A82810 0 ppm
[8] = system: culture A82810.1 (Actinomadura fibrosa sp. nov. NRRL 18348); assay: antibiotic sensitivity disc test on seeded ISP No. 2 agar; format: cell-based; set-up: key to Resistance to: (A82810.1): Resistance was scored as (+) when no zone of inhibition was observed; (-) when a zone of inhibition was observed; details: for resistance / sensitivity of culture A82810.1 to the antibiotic: cephalothin 30 µg, lincomycin 2 µg, penicillin G 10 units, rifampin 5 µg, lysozyme 50 µg/mL, bacitracin 10 units, gentamicin 10 µg, neomycin 30 µg, oleandomycin 15 µg, streptomycin 10 µg, tetracycline 30 µg, tobramycin 10 µg, vancomycin 30 µg; for Resistance to: (A82810.1): Oleandomycin 16 µg, Penicillin G 10 units
Protocol: (§1) Resistance to antibiotics was measured by padding antibiotic sensitivity discs onto the surface of seeded ISP No. 2 agar plates. Resistance was scored as (+) when no zone of inhibition was observed and as (-) when a zone of inhibition was observed.

A. verrucosospora = assay: antibiotic sensitivity disc test (species comparison); format: cell-based; set-up: key: Resistance was scored as (+) when no zone of inhibition was observed; (-) when a zone of inhibition was observed; details: Oleandomycin 16 µg; Penicillin G 10 units
Protocol: as §1

[9] = Benzeneamine ppm r4-r6: 8,12,16
[10] = Benzeneamine ppm r10-r12: 8,12,16

## O=[N+]([O-])c1cc([N+](=O)[O-])c(Nc2ccc(Br)c3ccccc23)c(C(F)(F)F)c1 [4-Bromo-N-[2,4-dinitro-6-trifluoromethyl)phenyl]-1-naphthaleneamine]
[1]; Table XXIV, 4-Bromo naphthaleneamine ppm r4-r7: 4,8,12,16
  WEIGHT GAIN, PERCENT OF CONTROL: 73% OF CONTROL and 66% OF CONTROL and 72% OF CONTROL and 67% OF CONTROL
[1]; Table XXIV, 4-Bromo naphthaleneamine ppm r11-r14: 4,8,12,16
  AVERAGE INTESTINAL LESION SCORES: 6.2 and 6.9 and 6.6 and 3.8
[1]; Table XXIV, 4-Bromo naphthaleneamine ppm r18-r21: 4,8,12,16
  AVERAGE CECAL LESION SCORES: 2.9 and 3.5 and 3.0

## O=[N+]([O-])c1cc([N+](=O)[O-])c(Nc2ccc(Cl)c3ccccc23)c(C(F)(F)F)c1 [4-chloro-N-[2,4-dinitro-6-(trifluoromethyl)phenyl]-1-naphthaleneamine]
[1]; Table XXII, 4-chloro naphthaleneamine ppm r11-r14: 4,8,12,16
  WEIGHT GAIN, PERCENT OF CONTROL: 80% OF CONTROL and 78% OF CONTROL and 92% OF CONTROL
[2]; Table XXIII, 4-chloro naphthaleneamine ppm r11-r14: 4,8,12,16
  WEIGHT GAIN, PERCENT OF CONTROL: 87% OF CONTROL and 80% OF CONTROL and 85% OF CONTROL and 84% OF CONTROL

## O=[N+]([O-])c1cc([N+](=O)[O-])c(Nc2ccc(OC(F)(F)C(F)F)cc2)c(C(F)(F)F)c1 [Benzeneamine, 2,4-Dinitro-N-[4-(1,1,2,2-tetrafluoroethoxy)phenyl]-6-(trifluoromethyl)benzeneamine]
[1]; Table VI, Benzeneamine ppm r4-r7: 4,8,12,16
  TOTAL LESION SCORE: 12.4 and 10.9 and 10.4 and 10.8
[1]; Table VI, Benzeneamine ppm r11-r14: 4,8,12,16
  WEIGHT GAIN, PERCENT OF CONTROL: 75% OF CONTROL and 68% OF CONTROL and 73% OF CONTROL and 76% OF CONTROL
[3]; [9]
  LESION SCORE: 9.4 and 8.4 and 8.0
[3]; [10]
  WEIGHT GAIN, PERCENT OF CONTROL: 70% OF CONTROL and 72% OF CONTROL and 74% OF CONTROL
[3]; Benzeneamine ppm r16-r18: 8,12,16
  PERCENT REDUCTION IN OOCYST PRODUCTION: 17% and 18% and 20%
[4]; Table IX, Benzeneamine ppm r4-r8: 16,18,20,22,24
  WEIGHT GAIN, PERCENT OF CONTROL: 91% OF CONTROL and 84% OF CONTROL and 88% OF CONTROL and 85% OF CONTROL
[4]; Table IX, Benzeneamine ppm r20-r24: 16,18,20,22,24
  AVERAGE CECAL LESION SCORES: 2.9 and 3.0 and 2.6 and 1.6
[4]; Table VII, Benzeneamine ppm r11-r14: 4,8,12,16
  WEIGHT GAIN, PERCENT OF CONTROL: 90% OF CONTROL and 94% OF CONTROL and 88% OF CONTROL and 87% OF CONTROL
[4]; Table VIII, Benzeneamine ppm r4-r7: 8,10,12,14
  WEIGHT GAIN, PERCENT OF CONTROL: 76% OF CONTROL and 77% OF CONTROL and 75% OF CONTROL and 70% OF CONTROL
[4]; Table VIII, Benzeneamine ppm r11-r14: 8,10,12,14
  AVERAGE INTESTINAL LESION SCORES: 5.9 and 4.8 and 4.5
[4]; Table VIII, Benzeneamine ppm r18-r21: 8,10,12,14
  AVERAGE CECAL LESION SCORES: 3.3 and 3.2 and 3.1 and 2.8
[5]; Benzeneamine ppm r4-r7: 4,8,12,16
  WEIGHT GAIN, PERCENT OF CONTROL: 74% OF CONTROL and 71% OF CONTROL and 82% OF CONTROL and 75% OF CONTROL
[5]; Benzeneamine ppm r11-r14: 4,8,12,16
  AVERAGE INTESTINAL LESION SCORES: 6.9 and 8.4 and 6.3 and 5.8
E. maxima Strain LIT-626
  WEIGHT GAIN, PERCENT OF CONTROL: 94% OF CONTROL and 99% OF CONTROL and 93% OF CONTROL and 98% OF CONTROL
[6]; [9]
  AVERAGE INTESTINAL LESION SCORES: 6.0 and 5.1 and 4.7
[6]; [10]
  WEIGHT GAIN, PERCENT OF CONTROL: 62% OF CONTROL and 64% OF CONTROL and 69% OF CONTROL
[2]; Table XI, Benzeneamine ppm r4-r6: 8,12,16
  INTESTINAL LESION SCORE: 3.6 and 3.9 and 3.3
[2]; Table XI, Benzeneamine ppm r10-r12: 8,12,16
  WEIGHT GAIN, PERCENT OF CONTROL: 77% OF CONTROL and 84% OF CONTROL and 87% OF CONTROL
[2]; Table XII, Benzeneamine ppm r4-r6: 8,12,16
  AVERAGE INTESTINAL LESION SCORES: 2.6 and 2.2 and 2.3
[2]; Table XII, Benzeneamine ppm r10-r12: 8,12,16
  WEIGHT GAIN, PERCENT OF CONTROL: 79% OF CONTROL and 88% OF CONTROL and 102% OF CONTROL
[7]; Table XIV, Benzeneamine ppm r4-r7: 8,10,12,14
  WEIGHT GAIN, PERCENT OF CONTROL: 90% OF CONTROL and 88% OF CONTROL and 92% OF CONTROL
[7]; Table XIV, Benzeneamine ppm r11-r14: 8,10,12,14
  AVERAGE INTESTINAL LESION SCORES: 3.8 and 3.7 and 3.3
[7]; Table XV, Benzeneamine ppm r4-r7: 9,10,11,12
  WEIGHT GAIN, PERCENT OF CONTROL: 90% OF CONTROL and 94% OF CONTROL and 87% OF CONTROL and 84% OF CONTROL
[7]; Table XV, Benzeneamine ppm r11-r14: 9,10,11,12
  AVERAGE INTESTINAL LESION SCORES: 4.0 and 3.8 and 3.7
[7]; Table XVI, Benzeneamine ppm r4-r8: 16,18,20,22,24
  WEIGHT GAIN, PERCENT OF CONTROL: 71% OF CONTROL and 76% OF CONTROL and 81% OF CONTROL and 79% OF CONTROL and 83% OF CONTROL
[7]; Table XVI, Benzeneamine ppm r12-r16: 16,18,20,22,24
  AVERAGE INTESTINAL LESION SCORES: 4.0 and 3.1 and 3.4 and 3.7 and 2.6
[7]; Table XVII, Benzeneamine ppm r4-r6: 8,12,16
  LESION SCORE: 3.3 and 2.9 and 2.4
[7]; Table XVII, Benzeneamine ppm r10-r12: 8,12,16
  WEIGHT GAIN, PERCENT OF CONTROL: 68% OF CONTROL and 59% OF CONTROL and 74% OF CONTROL
[7]; Table XVIII, Benzeneamine ppm r4-r6: 8,12,16
  INTESTINAL LESION SCORE: 4.0 and 3.9 and 3.3
[7]; Table XVIII, Benzeneamine ppm r10-r12: 8,12,16
  WEIGHT GAIN, PERCENT OF CONTROL: 91% OF CONTROL and 95% OF CONTROL and 93% OF CONTROL

## CC[C@H](C)[C@H](N)C1=N[C@H](C(=O)N[C@@H](CC(C)C)C(=O)N[C@H](CCC(=O)O)C(=O)N[C@H](C(=O)N[C@H]2CCCCNC(=O)[C@H](CC(N)=O)NC(=O)[C@@H](CC(=O)O)NC(=O)[C@H](Cc3cnc[nH]3)NC(=O)[C@@H](Cc3ccccc3)NC(=O)[C@H]([C@@H](C)CC)NC(=O)[C@@H](CCCN)NC2=O)[C@@H](C)CC)CS1 [bacitracin] ({Ileψ(thiazoline)Cys}-L[dE]IK[dOrn]I[dF]H[dD]N; lactam 4-C)
[8]
  resistance / sensitivity of culture A82810.1 to the antibiotic: sensitive

## CC(=O)OCC1=C(C(=O)O)N2C(=O)[C@@H](NC(=O)Cc3cccs3)[C@H]2SC1 [cephalothin]
[8]
  resistance / sensitivity of culture A82810.1 to the antibiotic: resistant

## CCC[C@@H]1C[C@@H](C(=O)N[C@@H]([C@H]2O[C@H](SC)[C@H](O)[C@@H](O)[C@H]2O)[C@@H](C)O)N(C)C1 [lincomycin]
[8]
  resistance / sensitivity of culture A82810.1 to the antibiotic: resistant

## CO[C@H]1C[C@H](O[C@H]2[C@H](C)[C@@H](O[C@@H]3O[C@H](C)C[C@H](N(C)C)[C@H]3O)[C@@H](C)C[C@@]3(CO3)C(=O)[C@H](C)[C@@H](O)[C@@H](C)[C@@H](C)OC(=O)[C@@H]2C)O[C@@H](C)[C@@H]1O [oleandomycin]
[8]
  Resistance to: (A82810.1): -
  resistance / sensitivity of culture A82810.1 to the antibiotic: sensitive
A. verrucosospora
  Resistance to: (A. verrucosospora): +

## CC1(C)S[C@@H]2[C@H](NC(=O)Cc3ccccc3)C(=O)N2[C@H]1C(=O)O [penicillin G]
[8]
  Resistance to: (A82810.1): +
  resistance / sensitivity of culture A82810.1 to the antibiotic: resistant
A. verrucosospora
  Resistance to: (A. verrucosospora): -

## CO[C@H]1/C=C/O[C@@]2(C)Oc3c(C)c(O)c4c(O)c(c(/C=N/N5CCN(C)CC5)c(O)c4c3C2=O)NC(=O)/C(C)=C\C=C\[C@H](C)[C@H](O)[C@@H](C)[C@@H](O)[C@@H](C)[C@H](OC(C)=O)[C@@H]1C [rifampin]
[8]
  resistance / sensitivity of culture A82810.1 to the antibiotic: resistant

## [H]/N=C(/N)N[C@H]1[C@H](O)[C@@H](O)[C@H](O[C@@H]2O[C@@H](C)[C@](O)(C=O)[C@H]2O[C@@H]2O[C@@H](CO)[C@H](O)[C@@H](O)[C@@H]2NC)[C@@H](N/C(N)=N\[H])[C@@H]1O [streptomycin]
[8]
  resistance / sensitivity of culture A82810.1 to the antibiotic: sensitive

## NC[C@H]1O[C@H](O[C@H]2[C@H](O)[C@@H](O[C@H]3O[C@H](CO)[C@@H](O)[C@H](N)[C@H]3O)[C@H](N)C[C@@H]2N)[C@H](N)C[C@@H]1O [tobramycin]
[8]
  resistance / sensitivity of culture A82810.1 to the antibiotic: sensitive

## CN[C@H](CC(C)C)C(=O)N[C@H]1C(=O)N[C@@H](CC(N)=O)C(=O)N[C@H]2C(=O)N[C@H]3C(=O)N[C@H](C(=O)N[C@H](C(=O)O)c4cc(O)cc(O)c4-c4cc3ccc4O)[C@H](O)c3ccc(c(Cl)c3)Oc3cc2cc(c3O[C@@H]2O[C@H](CO)[C@@H](O)[C@H](O)[C@H]2O[C@H]2C[C@](C)(N)[C@H](O)[C@H](C)O2)Oc2ccc(cc2Cl)[C@H]1O [vancomycin]
[8]
  resistance / sensitivity of culture A82810.1 to the antibiotic: sensitive

## gentamicin
[8]
  resistance / sensitivity of culture A82810.1 to the antibiotic: sensitive

## neomycin
[8]
  resistance / sensitivity of culture A82810.1 to the antibiotic: sensitive
